For eleven compounds, EC50 results are on record in US8754069B2, “Betulinic acid derivatives with antiviral activity” (priority 2011, dated 2014).

For this assay, the system named is recombinant NL4-3 virus (NLRluc, Renilla luciferase in nef, Gag P373S) in MT-2 cells. The assay is described as follows: HIV Cell Culture Assay (luciferase reporter virus in MT-2 cells). It counts as cell-based. The settings on record: NL43, 96 h, read-out: 10% FBS (EC50, uM). The method, then: HIV Cell Culture Assay—MT-2 cells and 293T cells were obtained from the NIH AIDS Research and Reference Reagent Program. MT-2 cells were propagated in RPMI 1640 media supplemented with 10% heat inactivated fetal bovine serum, […]. The 293T cells were propagated in DMEM media supplemented with 10% heat inactivated fetal bovine serum (FBS), 100 units/ml penicillin G and 100 μg/ml streptomycin. The proviral DNA clone of NL4-3 was obtained from the NIH AIDS Research and Reference Reagent Program. A recombinant NL4-3 virus, in which a section of the nef gene from NL4-3 was replaced with the Renilla luciferase gene, was used as a reference virus. In addition, residue Gag P373 was converted to P373S. Briefly, the recombinant virus was prepared by transfection of the altered proviral clone of NL4-3. Transfections were performed in 293T cells using LipofectAMINE PLUS from Invitrogen (Carlsbad, Calif.), according to manufacturer's instruction. The virus was titered in MT-2 cells using luciferase enzyme activity as a marker. Luciferase was quantitated using the Dual Luciferase kit from Promega (Madison, Wis.), with modifications to the manufacturer's protocol. The diluted Passive Lysis solution was pre-mixed with the re-suspended Luciferase Assay Reagent and the re-suspended Stop & Glo Substrate (2:1:1 ratio). Fifty (50) μL of the mixture was added to each aspirated well on assay plates and luciferase activity was measured immediately on a Wallac TriLux (Perkin-Elmer). Antiviral activities of inhibitors toward the recombinant virus were quantified by measuring luciferase activity in cells infected for 4-days with NLRluc recombinants in the presence serial dilutions of the inhibitor. Table 1 is the key for the data in Table 2. Results
For orientation: Reporter assays use an easily measured gene product as a stand-in for the process of interest.
Regarding `C=C(C)[C@@H]1CC[C@]2(NCCN3CCS(=O)(=O)CC3)CC[C@]3(C)[C@H](CC[C@@H]4[C@@]5(C)CC[C@H](OC(=O)C(C)(C)CC(=O)O)C(C)(C)[C@@H]5CC[C@]43C)[C@@H]12` [Example 1, 4-(((1R,3aS,5aR,5bR,7aR,9S,11aR,13aR,13bR)-3a-((2-(1,1-dioxido-4-thiomorpholinyl)ethyl)amino)-1-isopropenyl-5a,5b,8,8,11a-pentamethylicosahydro-1H-cyclopenta[a]chrysen-9-yl)oxy)-3,3-dimethyl-4-oxobutanoic acid], the EC50 was less than 0.1 µM.

On to `C=C(C)[C@@H]1CC[C@]2(NCCN3CCS(=O)(=O)CC3)CC[C@]3(C)[C@H](CC[C@@H]4[C@@]5(C)CC[C@H](OC(=O)CC(C)(C)C(=O)O)C(C)(C)[C@@H]5CC[C@]43C)[C@@H]12` [Example 2, 4-(((1R,3aS,5aR,5bR,7aR,9S,11aR,13aR,13bR)-3a-((2-(1,1-dioxido-4-thiomorpholinyl)ethyl)amino)-1-isopropenyl-5a,5b,8,8,11a-pentamethylicosahydro-1H-cyclopenta[a]chrysen-9-yl)oxy)-2,2-dimethyl-4-oxobutanoic acid], for which the EC50 was less than 0.1 µM.

For `C=C(C)[C@@H]1CC[C@]2(NCCN3CCS(=O)(=O)CC3)CC[C@]3(C)[C@H](CC[C@@H]4[C@@]5(C)CC[C@H](OC(=O)CC(C)(C)CC(=O)O)C(C)(C)[C@@H]5CC[C@]43C)[C@@H]12` [Example 3, 5-(((1R,3aS,5aR,5bR,7aR,9aR,9S,11aR,3aR,13bR)-3a-((2-(1,1-dioxido-4-thiomorpholinyl)ethyl)amino)-1-isopropenyl-5a,5b,8,8,11a-pentamethylicosahydro-1H-cyclopenta[a]chrysen-9-yl)oxy)-3,3-dimethyl-5-oxopentanoic acid], the EC50 was less than 0.1 µM.

As for `C=C(C)[C@@H]1CC[C@]2(NCCN3CCOCC3)CC[C@]3(C)[C@H](CC[C@@H]4[C@@]5(C)CC[C@H](OC(=O)C(C)(C)CC(=O)O)C(C)(C)[C@@H]5CC[C@]43C)[C@@H]12` [Example 4, 3,3-dimethyl-4-oxo-4-((1R,3aS,5aR,5bR,7aR,9S,11aR,13aR,13bR)-5a,5b,8,8,11a-pentamethyl-3a-(2-morpholinoethylamino)-1-(prop-1-en-2-yl)icosahydro-1H-cyclopenta[a]chrysen-9-yloxy)butanoic acid], the EC50 is less than 0.1 µM.

On to `C=C(C)[C@@H]1CC[C@]2(NCCN3CCOCC3)CC[C@]3(C)[C@H](CC[C@@H]4[C@@]5(C)CC[C@H](OC(=O)CC(C)(C)C(=O)O)C(C)(C)[C@@H]5CC[C@]43C)[C@@H]12` [Example 5, 2,2-dimethyl-4-oxo-4-((1R,3aS,5aR,5bR,7aR,9S,11aR,13aR,13bR)-5a,5b,8,8,11a-pentamethyl-3a-(2-morpholinoethylamino)-1-(prop-1-en-2-yl)icosahydro-1H-cyclopenta[a]chrysen-9-yloxy)butanoic acid], for which the half-maximal effective concentration (EC50) is less than 0.1 µM.

Consider `CC(C)[C@@H]1CC[C@]2(NCCN3CCS(=O)(=O)CC3)CC[C@]3(C)[C@H](CC[C@@H]4[C@@]5(C)CC[C@H](OC(=O)CC(C)(C)C(=O)O)C(C)(C)[C@@H]5CC[C@]43C)[C@@H]12` [Example 6, 4-(((1S,3aS,5aR,5bR,7aR,9S,11aR,13aR,13bR)-3a-((2-(1,1-dioxido-4-thiomorpholinyl)ethyl)amino)-1-isopropyl-5a,5b,8,8,11a-pentamethylicosahydro-1H-cyclopenta[a]chrysen-9-yl)oxy)-2,2-dimethyl-4-oxobutanoic acid], for which the EC50 is less than 0.1 µM.

As for `CC(C)[C@@H]1CC[C@]2(NCCN3CCS(=O)(=O)CC3)CC[C@]3(C)[C@H](CC[C@@H]4[C@@]5(C)CC[C@H](OC(=O)CC(C)(C)CC(=O)O)C(C)(C)[C@@H]5CC[C@]43C)[C@@H]12` [Example 7, 5-(((1S,3aS,5aR,5bR,7aR,9aR,9S,11aR,3aR,13bR)-3a-((2-(1,1-dioxido-4-thiomorpholinyl)ethyl)amino)-1-isopropyl-5a,5b,8,8,11a-pentamethylicosahydro-1H-cyclopenta[a]chrysen-9-yl)oxy)-3,3-dimethyl-5-oxopentanoic acid], the EC50 was less than 0.1 µM.

For `C=C(C)[C@@H]1CC[C@]2(NCCN3CCC(S(C)(=O)=O)CC3)CC[C@]3(C)[C@H](CC[C@@H]4[C@@]5(C)CC[C@H](OC(=O)C(C)(C)CC(=O)O)C(C)(C)[C@@H]5CC[C@]43C)[C@@H]12` [Example 8, 3,3-dimethyl-4-oxo-4-(((1R,3aS,5aR,5bR,7aR,9S,11aR,13aR,13bR)-5a,5b,8,8,11a-pentamethyl-3a-((2-(4-(methylsulfonyl)piperidin-1-yl)ethyl)amino)-1-(prop-1-en-2-yl)icosahydro-1H-cyclopenta[a]chrysen-9-yl)oxy)butanoic acid], the half-maximal effective concentration (EC50) was less than 0.1 µM.

On to `C=C(C)[C@@H]1CC[C@]2(NCCN3CCC(S(C)(=O)=O)CC3)CC[C@]3(C)[C@H](CCC4[C@@]5(C)CC[C@H](OC(=O)CC(C)(C)C(=O)O)C(C)(C)[C@@H]5CC[C@]43C)[C@@H]12` (stereo partly drawn) [Example 9, 2,2-dimethyl-4-oxo-4-(((1R,3aS,5aR,5bR,7aR,9S,11aR,13aR,13bR)-5a,5b,8,8,11a-pentamethyl-3a-((2-(4-(methylsulfonyl)piperidin-1-yl)ethyl)amino)-1-(prop-1-en-2-yl)icosahydro-1H-cyclopenta[a]chrysen-9-yl)oxy)butanoic acid], for which the EC50 is less than 0.1 µM.

Regarding `C=C(C)[C@@H]1CC[C@]2(NCCN(C)C)CC[C@]3(C)[C@H](CC[C@@H]4[C@@]5(C)CC[C@H](OC(=O)CC(C)(C)C(=O)O)C(C)(C)[C@@H]5CC[C@]43C)[C@@H]12` [Example 10, 4-(((1R,3aS,5aR,5bR,7aR,9S,11aR,13aR,13bR)-3a-((2-(dimethylamino)ethyl)amino)-5a,5b,8,8,11a-pentamethyl-1-(prop-1-en-2-yl)icosahydro-1H-cyclopenta[a]chrysen-9-yl)oxy)-2,2-dimethyl-4-oxobutanoic acid], the EC50 was less than 0.1 µM.

In the case of `C=C(C)[C@@H]1CC[C@]2(NCCN3CCN(S(C)(=O)=O)CC3)CC[C@]3(C)[C@H](CC[C@@H]4[C@@]5(C)CC[C@H](OC(=O)CC(C)(C)C(=O)O)C(C)(C)[C@@H]5CC[C@]43C)[C@@H]12` [Example 11, 2,2-dimethyl-4-oxo-4-(((1R,3aS,5aR,5bR,7aR,9S,11aR,11bR,13aR,13bR)-5a,5b,8,8,11a-pentamethyl-3a-((2-(4-(methylsulfonyl)piperazin-1-yl)ethyl)amino)-1-(prop-1-en-2-yl)icosahydro-1H-cyclopenta[a]chrysen-9-yl)oxy)butanoic acid], the EC50 is less than 0.1 µM.

Usually EC50 stands for the concentration giving half of the maximal effect.
